Patent US6402037B1, “Two-photon upconverting dyes and applications” (The Research Foundation of State University of New York, priority 1995, dated 2002)
Marks after values point to notes of the source that are not given here. One block for each compound: values may come before it.

Tests used:
[1] = Decomposition temperature (Td) by DSC thermogram; type: physicochemical; conditions: DSC under nitrogen
Procedure: Decomposition temperature (“Td”) of each dye was measured by differential scanning calorimetry (“DSC”) thermogram using a Shimadzu DSC-50GPC under nitrogen. Elemental: analysis were performed by Atlantic Microlab, Inc., P.O. Box 2288, Norcross, Ga. 30019. Proton NMR spectra, TV/visible absorption spectra, and UV/visible emission spectra were recorded using a Varian Gemini-300 300 MHz spectrometer, a Shimazdu UV-3101 PC spectrophotometer, and a Shimazdu RF5000U spectrofluorophotometer, respectively: TV/visible absorption spectra of dyes prepared in these Examples in DMF, are provided in FIG. 3.

[2] = Solubility
[3] = Optical characterization of the solution state (ethanol); conditions: for fluorescence quantum yield: vs Rhodamine-6G
Procedure: Absorption spectra were obtained using a Shimadzu UV-Vis 260 spectrophotometer with a resolution of ±1 nm. The spectra of solution state were obtained using quartz cuvettes (1 cm path length) throughout.
In addition, the quantum yield was measured from the fluorescence data.

[4] = Optical characterization of the dye-doped composite glasses; type: physicochemical
Procedure: Emission spectra were collected on a Shimadzu RF-5000U Spectrofluorophotometer (90° geometry) having a resolution of ±2 nm. For solution state measurements, a fluorometric quartz cuvette was used. For the composite glass, the emission was obtained from the surface of the glass (90° geometry) due to significant primary absorption. […]

[5] = Two-photon pumped cavity lasing of dye-doped matrices (1.06 μm pump)
[6] = as above; remark: listed apart in the source
Procedure: Two-photon pumped cavity lasing experiments were conducted using a Q-switched Nd-YAG pulsed laser source having a wavelength of 1.06 μm, a pulsewidth of about 10 ns, a spectral width of about 1 cm^−1, an angular divergence of about 1.3 mrad, and a variable repetition rate of 1-10 Hz. A 1 cm-long quartz cuvette filled with dye1 solution in cyclopentanone (do≈8×10^−2 to 4×10^−2M) and a 7 mm-long, dye1 -doped poly(HEMA) rod (do,≈8×10^−3 M), prepared in accordance with Example 12, were used separately for two-photon pumped (“TPP”) lasing observation. The 1.06 μm-pump laser beam was focused on the center of the cuvette or sample rod, and a strong orange-red fluorescence emission was observed when the infrared pump intensity reached several MW/cm^2. Once the pump intensity further increased to a certain threshold level, simultaneous forward and backward highly directional superradiation could be observed from the solution or rod samples. To achieve cavity lasing, two parallel plane dielectrc-coating mirrors were employed to form a cavity. The pump beam, focused through a f-10 cm lens, was coupled into the cavity by normal incidence. The reflectivity was r=10% at 1.06 μm and r=99% at 600 nm for the front mirror (input coupler) and r=10% at 1.06 μm and r=50% at 600 nm for the rear mirror (output coupler). The total cavity length was 7˜8 cm, and the cuvette or sample rod was located at the center of the cavity. […] FIGS. 11A-11C show the emission spectra of the same 7 mm-long, dye1 -doped rod sample under the following different excitation conditions: 532 nm one-photon excited fluorescence emission (FIG. 11A), 1.06 μm two-photon excited fluorescence emission (FIG. 11B), and 1.06 μm pumped cavity lasing (FIG. 11C). Each spectrum was obtained using a grating -spectrograph in conjunction with an optical multi-channel analyzer (OMA-III) system. The difference between FIGS. 11A and 11B can be explained by a volume reabsorption effect of the emission. To obtain these two spectra, the excitation beam was incident on the rod end at a +45° angle, and the fluorescence was measured at a −45° angle. In the case of FIG. 11A, the emission was mainly from a shallow surface layer of the sample because of the very short penetration depth of the 532 nm pump radiation, and therefore, the reabsorption effect within the sample can be neglected. However, for the case of FIG. 11B, the incident infrared beam could pass through the whole rod length without obvious depletion, and, consequently, collected fluorescence signals of different spectral components were propagated within the sample for a considerable distance. […] Cavity lasing occurred at the central region of the two-photon absorption (“TPA”) induced fluorescence band, but the lasing bandwidth (˜8 nm) was much narrower than the ordinary one-photon excited fluorescence band width (˜60 nm) due to the lasing threshold requirement. In addition, a red-shift of the central lasing wavelength was observed as the pump energy increased. This shift may be caused by the local temperature change of the sample rod.
Compared to the smooth temporal profile of the 10 ns pump pulse, the lasing pulses manifested much shorter rise- and fall-times, i.e. ≦1.5 ns limited by the resolution of the detecting system. […]
The lasing output/pump input characteristic curve is given in FIG. 13 for the rod cavity lasing. […] However, at this pump level the measured one-pass two-photon absorption in the 7 mm-long rod was only about 23%. […]

[7] = TPA induced fluorescence and optical limiting in dye1-doped epoxy; type: physicochemical
Description: Dye1, prepared in accordance with Example 6, was dispersed in an optical quality epoxy compound, EPO-TEX301 (Epoxy Technology, Inc., Billerica, Mass.) by dissolving the dye powder in the liquid Part A and Part B of the epoxy. Undoped and dye1-doped epoxies were cast by blade casting techniques. Film thickness was the same (0.3 mm) for both films, and the dopant concentration for the doped film was do=0.003 M.
A 2 cm-long, dye1-doped epoxy (EPO-TEX301) rod with a concentration of do=0.004M was used for TPA induced fluorescence and optical limiting measurements. An incident near infrared laser beam, having a wavelength of 1.06 μm, a pulsewidth of about 8 ns, a spectral width of about 1 cm^−1, and a repetition rate of 3 Hz, was provided by a Q-switched Nd-YAG pulsed laser source. The incident 1.06 μm radiation on the sample was a quasi-parallel laser beam of about 1 mm size with a nearly uniform transverse intensity distribution. An orange-red fluorescence emission was readily observed by the human eye in a dark room when the 1.06 μm incident beam intensity reached several MW/cm^2. […] Each data point was averaged over 10 laser pulses by using a gated integrator and boxcar averager. The solid line is the best fitted curve based on the square law that TPA processes follow.
where I(L) is the transmitted beam intensity, Io, is the incident beam intensity, L is the thickness of the sample, and β is the TPA coefficient of the sample medium. In the derivation of Equation (1), it is assumed that the linear attenuation of the medium can be neglected and the beam has a nearly uniform transverse intensity distribution within the medium. Using Equation (1), the value of β can be determined by measuring the transmitted intensity versus the incident intensity for a sample medium with a given L value. Furthermore, the TPA coefficient β (in units of cm/GW) of a given sample is determined by
Here, No is the molecular density of the dopant (in units of 1 cm^3), σ2 is the molecular TPA coefficient (or cross-section) of the same dopant (in units of cm^4/GW, do is the concentration of the dopant compound in the matrix (in units of M), and finally NA is Avogadro's number. For known β and do, the value of σ2 can be calculated from Equation (2). Another expression for molecular TPA coefficient (or cross-section), used in some reference papers, is
where hυ is the energy of an incident photon, and σ′2 has units of cm^4/photon/sec.
The measured transmitted intensity as a function of the incident intensity for the 2 cm-long, dye1-doped epoxy rod is shown in FIG. 9. Two groups of experimental data were obtained in two measurement cycles, and each data point was an average result over 10 laser pulses. In FIG. 9, the solid line is the theoretical curve predicted by Equation (1) using a best fit parameter of β=6 cm/GW, and the dashed line is similarly constructed by assuming that there is no TPA (β=0). Consequently, FIG. 9 evidences the TPA induced optical limiting behavior of dye1 at incident intensity levels of 50-250 MW/cm^2. Using a value of β=6 cm/GW and Equations (2) and (3), the values of molecular TPA cross-section of dye1 were estimated as σ2=2.5×10^−18 cm^4/GW and σ′2=4.7×10^−46 cm^4/photon/sec. These measured values of σ2 and σ2 for dye1 in EPO-TEX301 matrix are 2˜3 orders of magnitude greater than the corresponding values of Rhodamine dyes, as reported by Rapp et al., Chem. Phys. […] The damage threshold of the 2 cm-long, dye1-doped epoxy rod was measured as 250˜300 MW/cm^2.

[8] = cyclopentanone solution, 0.001 M
[9] = EPO-TEX301 matrix, 1.06 μm, from β

Decomposition temperature (Td) [1]: 266 °C
SMILES: CN(C)c1ccc(/C=C/c2cc[n+](C)cc2)cc1.c1ccc([B-](c2ccccc2)(c2ccccc2)c2ccccc2)cc1 [dye2, trans-4-[p-(N,N-dimethylamino)styryl]-N-methylpyridinium tetraphenyborate]

SMILES: CCN(CCO)c1ccc(/C=C/c2cc[n+](CCO)cc2)cc1.[I-] [ASPI, trans-4-[p-(N-ethyl-N-hydroxyethylamino)styryl]-N-hydroxyethylpyridinium iodide]
Decomposition temperature (Td) [1]: 270 °C
solubility ([2]; ethanol, organic solvent or mixture): 6.1 mM
solubility ([2]; in PMMA): insolubility
solubility ([2]; in methyl methacrylate monomer): insolubility
fluorescence quantum yield ([3]; 1.8×10^−6 M, excited at 482 nm): 6×10^−3
fluorescence quantum yield ([3]; 2.6×10^−6 M, excited at 509 nm): 7×10^−3
Quantum Yield ([3]; Solution State, Table 2): 6.5 × 10^−3
Absorbance Max. ([3]; ethanol): 483 nm
Stokes Shift ([3]; ethanol): 118 nm
molar absorptivity ([3]; ethanol, at 483 nm): 68000 M⁻¹ cm⁻¹
Fluorescence Max. ([3]; ethanol, ASPI 3.1×10^−3 M, Rhodamine-6G 6.5×10^−5 M, excitation 509 nm): 600 nm
Florescence FWHM ([3]; ethanol, same concentrations, excitation 509 nm): ~38 nm
Florescence FWHM ([4]; Composite Glass, single dye): 45 nm
Fluorescence Max. ([4]; Composite Glass, single dye): 586 nm
Florescence FWHM, ASPI emission ([4]; composite glass containing both dyes): 41 nm
Fluorescence Max., ASPI emission ([4]; composite glass containing both dyes, reconstructed peak): 594 nm

Decomposition temperature (Td) [1]: 264 °C
one-photon fluorescence bandwidth ([5]; Vycor glass 0.0015M): 60 nm
one-photon fluorescence peak ([5]; Vycor glass 0.0015M): 575 nm
absorption bandwidth [5, 8]: 100^a nm
linear absorption peak [5, 8]: 480^a nm
one-photon fluorescence bandwidth [5, 8]: 58^a nm
one-photon fluorescence peak [5, 8]: 590^a nm
one-photon fluorescence bandwidth ([5]; sol-gel glass 0.0015 M): 55 nm
one-photon fluorescence peak ([5]; sol-gel glass 0.0015 M): 568 nm
absorption bandwidth ([6]; poly(HEMA) 0.008M): 80 nm
linear absorption peak ([6]; poly(HEMA) 0.008M): 485 nm
one-photon fluorescence bandwidth ([6]; poly(HEMA) 0.008M): 55 nm
one-photon fluorescence peak ([6]; poly(HEMA) 0.008M): 577 nm
molecular TPA cross-section σ2 ([6]; poly(HEMA) rod, 1.06 μm, from nonlinear absorption data): ≈ 1.2×10^−46 cm^4-sec
strong one-photon absorption range ([7]; 0.3 mm epoxy film, 0.003 M): 350˜560 nm
TPA coefficient β (best fit) ([7]; 2 cm EPO-TEX301 rod, 0.004M, 1.06 μm): 6 cm/GW
TPA cross-section greater than values of Rhodamine dyes ([7]; EPO-TEX301 matrix): 2˜3 orders of magnitude
molecular TPA cross-section σ2 [7, 9]: 2.5×10^−18 cm^4/GW
molecular TPA cross-section σ′2 [7, 9]: 4.7×10^−46 cm^4/photon/sec
SMILES: CCN(CCO)c1ccc(/C=C/c2cc[n+](C)cc2)cc1.c1ccc([B-](c2ccccc2)(c2ccccc2)c2ccccc2)cc1 [dye1, trans-4-[p-(N-ethyl-N-hydroxyethylamino)styryl]-N-methylpyridinium tetraphenyborate]
